Earlier results as cited in patent publication US20160082021A1, “PHARMACEUTICAL COMPOSITION OF DOXYCYCLINE WITH REDUCED FOOD EFFECT” (SUN PHARMACEUTICAL INDUSTRIES LIMITED, priority 2014, published 2016).

Settings: oral versus intravenous doses

C[C@H]1c2cccc(O)c2C(=O)C2=C(O)[C@]3(O)C(=O)C(C(N)=O)=C(O)[C@@H](N(C)C)[C@@H]3[C@@H](O)[C@@H]21 [doxycycline]
absorption for oral administration: 73-77%
